For data set [1], the target named is T1, IRAK4 (Homo sapiens, UniProt Q9NWZ3).
T1 construct: endogenous in cells; host or cells: OCI-LY10
T1 sequence (Q9NWZ3 1-460): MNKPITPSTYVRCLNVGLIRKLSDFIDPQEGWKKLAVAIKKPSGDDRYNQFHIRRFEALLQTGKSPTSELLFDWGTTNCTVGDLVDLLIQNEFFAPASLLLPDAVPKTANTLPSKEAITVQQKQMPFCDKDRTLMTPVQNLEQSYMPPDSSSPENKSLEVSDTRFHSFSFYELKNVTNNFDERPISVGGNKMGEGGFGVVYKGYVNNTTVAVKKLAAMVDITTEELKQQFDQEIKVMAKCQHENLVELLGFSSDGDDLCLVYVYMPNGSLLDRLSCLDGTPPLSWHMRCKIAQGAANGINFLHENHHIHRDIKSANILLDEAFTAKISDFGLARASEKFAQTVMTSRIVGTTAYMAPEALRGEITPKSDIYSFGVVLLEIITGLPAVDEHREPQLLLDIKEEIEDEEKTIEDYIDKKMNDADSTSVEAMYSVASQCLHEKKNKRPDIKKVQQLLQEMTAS
As to the kind of experiment: IRAK4 MSD degradation in OCI-LY10. Format: cell-based. The note with it: OCI-LY10 cells, 24 hrs, Meso Scale Discovery. Summed up:
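OCI-LY10 cells treated 4 to 24 hours at 37° C. with 8-dose 1:3 series, top 1 to 10 μM. IRAK4 in lysates quantified by MSD sandwich immunoassay (mouse capture, rabbit detection, SULFO-TAG anti-rabbit). DC50 from three-parameter logistic fit.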

Data set [2] in a line: Rodent pharmacokinetics (rat PK). Format: in vivo. The conditions noted are these: po, dosed intravenously or orally by gavage, plasma, read-out: F % (bioavailability). As for the experimental part: All studies related to handling, care, and treatment of rats in the study were performed according to the guidelines approved by the Institutional Animal Care and Use Committee (IACUC). All rats had access to food and water ad libitum. Rats were dosed intravenously or orally by gavage. Whole blood was collected from the jugular vein immediately prior to dosing and at 5 (intravenously administered drugs only), 15, and 30 min and 1, 2, 4, 8, and 24 h after drug administration. After sampling, whole blood was centrifuged at 4,000×g for 5 min at 4° C. to obtain plasma.
The letter codes for bioavailability (F %) include: A (≥5%) and B (≤5%).

SMILES strings stand for the structures.

The DC50 is the midpoint of the concentration-degradation curve. A higher DC50 goes with a less potent degrader. A word on the bioavailability: it is dose-corrected exposure relative to a reference, in per cent.

As for `Cn1nc(C2CCC(=O)NC2=O)c2cccc([C@@H]3CCN(C[C@H]4CC[C@H](n5cc6cc(NC(=O)c7cncc(C(F)(F)F)n7)ncc6n5)CC4)C[C@H]3F)c21` (single isomer, unassigned) [I-370], the DC50 in data set [1] was less than 10 nM. For the same compound, the bioavailability in data set [2] was no less than 5%.
In the case of `Cn1c(=O)n(C2CCC(=O)NC2=O)c2cccc(N3CCC4(CCN(C[C@H]5CC[C@H](c6nc7cc(C(C)(C)O)c(NC(=O)c8cncc(C#N)c8)cc7o6)CC5)CC4(F)F)CC3)c21` (some centres unmarked) [I-406], the DC50 in data set [1] was greater than 200 nM. Further, the bioavailability in data set [2] was no more than 5%.
The matching figures for `Cn1c(=O)n(C2CCC(=O)NC2=O)c2cccc([C@@H]3CCN(C[C@H]4CC[C@H](n5cc6cc(NC(=O)c7cncc(C(F)(F)F)n7)cc(F)c6n5)CC4)CC3(F)F)c21` (some centres unmarked) [I-375]: less than 10 nM and no more than 5%.
On the same counts, the results for `Cn1c(=O)n(C2CCC(=O)NC2=O)c2cccc(N3CCC4(CCN(C[C@H]5CC[C@H](n6cc7cc(NC(=O)c8cncc(C(F)(F)F)c8)c(C(C)(C)O)cc7n6)CC5)CC4(F)F)CC3)c21` (some centres unmarked) [I-365] are less than 10 nM and no less than 5%.
The matching figures for `COc1cc2nc([C@H]3CC[C@H](CN4CC[C@@H](c5cccc6c5n(C)c(=O)n6C5CCC(=O)NC5=O)C(F)(F)C4)CC3)sc2cc1NC(=O)c1cncc(C#N)c1` (single isomer, unassigned) [I-273]: greater than 200 nM and no more than 5%.
`COc1cc2nc([C@H]3CC[C@H](CN(C)[C@@H]4CCN(c5cccc6c5n(C)c(=O)n6C5CCC(=O)NC5=O)C[C@@H]4F)CC3)cn2cc1NC(=O)c1cncc(C(F)(F)F)n1` (single isomer, unassigned) [I-319] had a DC50 in data set [1] of less than 10 nM. In data set [2], the bioavailability is no more than 5%.
On the same counts, the results for `Cn1c(=O)n(C2CCC(=O)NC2=O)c2cccc([C@@H]3CCN(C[C@H]4CC[C@H](c5cn6cc(NC(=O)c7cncc(C(F)(F)F)n7)ccc6n5)CC4)C[C@H]3F)c21` (some centres unmarked) [I-193] are less than 10 nM and no more than 5%.
The matching figures for `Cn1c(=O)n(C2CCC(=O)NC2=O)c2cccc(N3CCC4(CCN(C[C@H]5CC[C@H](c6nc7cc(C(C)(C)O)c(NC(=O)c8cncc(C#N)c8)cc7s6)CC5)CC4(F)F)CC3)c21` (some centres unmarked) [I-364]: 100 to 200 nM and no more than 5%.
Regarding `COc1ccc2c(c1N1CC3(CCN(C[C@H]4CC[C@H](c5nc6cc(C(C)(C)O)c(NC(=O)c7cncc(C#N)c7)cc6o5)CC4)CC3(F)F)C1)n(C)c(=O)n2C1CCC(=O)NC1=O` (some centres unmarked) [I-413], the DC50 in data set [1] was greater than 200 nM. The bioavailability in data set [2] was no more than 5%.
On the same counts, the results for `Cn1c(=O)n(C2CCC(=O)NC2=O)c2cccc(N3CC(COC[C@H]4CC[C@H](n5cc(NC(=O)c6cnn7ccc(N8C[C@H]9C[C@@H]8CO9)nc67)c(C(F)F)n5)CC4)C3)c21` (some centres unmarked) [I-111] are greater than 200 nM and no more than 5%.
The matching figures for `COc1cc2nn([C@H]3CC[C@H](CN4CC[C@H](c5cccc6c(C7CCC(=O)NC7=O)nn(C)c56)[C@@H](F)C4)CC3)cc2cc1NC(=O)c1cncc(C#N)c1` (single isomer, unassigned) [I-264]: less than 10 nM and no more than 5%.
On the same counts, the results for `COc1cc2nn([C@H]3CC[C@H](CN4CCC5(CCN(c6cccc7c6n(C)c(=O)n7C6CCC(=O)NC6=O)CC5)C(F)(F)C4)CC3)cc2cc1C(=O)Nc1cncc(C#N)c1` (some centres unmarked) [I-228] are less than 10 nM and no more than 5%.
In data set [1], `Cn1c(=O)n(C2CCC(=O)NC2=O)c2cccc([C@@H]3CCN(C[C@H]4CC[C@H](c5cn6cc(NC(=O)c7cccc(C(F)(F)F)c7)c(C(C)(C)O)cc6n5)CC4)C[C@H]3F)c21` (some centres unmarked) [I-276] had a DC50 of less than 10 nM. Besides, the bioavailability in data set [2] is no more than 5%.
On the same counts, the results for `Cn1c(=O)n(C2CCC(=O)NC2=O)c2cccc([C@@H]3CCN(C[C@H]4CC[C@H](c5nc6cc(C(C)(C)O)c(NC(=O)c7cncc(C(F)(F)F)c7)cc6s5)CC4)C[C@H]3F)c21` (some centres unmarked) [I-163] are less than 10 nM and no less than 5%.
Regarding `Cn1c(=O)n(C2CCC(=O)NC2=O)c2ccc(F)c([C@H]3CCN(C[C@H]4CC[C@H](n5cc6cc(NC(=O)c7cncc(C(F)(F)F)n7)ccc6n5)CC4)C[C@@H]3F)c21` (single isomer, unassigned) [I-353], the 50% degradation concentration (DC50) in data set [1] was 10 to 100 nM. Moreover, the bioavailability in data set [2] was no less than 5%.
In turn, `COc1ccc2c(c1N1CC3(CCN(C[C@H]4CC[C@H](n5cc6cc(NC(=O)c7cncc(C#N)c7)c(C(C)(C)O)cc6n5)CC4)CC3(F)F)C1)n(C)c(=O)n2C1CCC(=O)NC1=O` (mixture of isomers) [I-227, 5-Cyano-N-[2-[4-[[2-[1-(2,6-dioxo-3-piperidyl)-5-methoxy-3-methyl-2-oxo-benzimidazol-4-yl]-5,5-difluoro-2,7-diazaspiro [3.5]nonan-7-yl]methyl]cyclohexyl]-6-(1-hydroxy-1-methyl-ethyl)indazol-5-yl]pyridine-3-carboxamide] gave a DC50 in data set [1] of less than 10 nM. In addition, the bioavailability in data set [2] is no more than 5%.
The matching figures for `Cn1c(=O)n(C2CCC(=O)NC2=O)c2cccc([C@@H]3CCN(C[C@H]4CC[C@H](n5cc6cc(NC(=O)c7ccnc(C(F)(F)F)n7)ccc6n5)CC4)C[C@H]3F)c21` (some centres unmarked) [I-190]: greater than 200 nM and no more than 5%.
The matching figures for `Cn1c(=O)n(C2CCC(=O)NC2=O)c2cccc(N3CC4(CCN(C[C@H]5CC[C@H](n6cc7cc(NC(=O)c8cncc(C#N)c8)c(C(C)(C)O)cc7n6)CC5)CC4(F)F)C3)c21` (some centres unmarked) [I-366]: less than 10 nM and no more than 5%.
Regarding `Cn1c(=O)n(C2CCC(=O)NC2=O)c2cccc([C@@H]3CCN(C[C@H]4CC[C@H](n5cc6cc(NC(=O)c7cccc(C(F)(F)F)c7)ccc6n5)CC4)C[C@H]3F)c21` (some centres unmarked) [I-245], the DC50 in data set [1] was less than 10 nM. Besides, the bioavailability in data set [2] was no more than 5%.
On the same counts, the results for `COc1cc(NC(=O)c2cncc(C(F)(F)F)n2)cc2cn([C@H]3CC[C@H](CN4CC[C@@H](c5cccc6c5n(C)c(=O)n6C5CCC(=O)NC5=O)C(F)(F)C4)CC3)nc12` (some centres unmarked) [I-374] are less than 10 nM and no more than 5%.
The matching figures for `Cn1c(=O)n(C2CCC(=O)NC2=O)c2cccc(N3CC4(CCN(C[C@H]5CC[C@H](n6cc7cc(NC(=O)c8cccc(C(F)(F)F)c8)ncc7n6)CC5)CC4(F)F)C3)c21` (some centres unmarked) [I-253]: less than 10 nM and no more than 5%.
The matching figures for `Cn1c(=O)n(C2CCC(=O)NC2=O)c2cccc([C@@H]3CCN(C[C@H]4CC[C@H](n5cc6cc(NC(=O)c7nccc(C(F)(F)F)n7)ccc6n5)CC4)C[C@H]3F)c21` (some centres unmarked) [I-195]: greater than 200 nM and no more than 5%.
Turning to `Cn1c(=O)n(C2CCC(=O)NC2=O)c2cccc([C@@H]3CCN(C[C@H]4CC[C@H](n5cc6cc(NC(=O)c7cncc(C(F)(F)F)n7)c(C#N)cc6n5)CC4)C[C@H]3F)c21` (some centres unmarked) [I-172], the DC50 in data set [1] was less than 10 nM. Besides, the bioavailability in data set [2] was no more than 5%.
Regarding `Cn1c(=O)n(C2CCC(=O)NC2=O)c2cccc([C@@H]3CCN(C[C@H]4CC[C@H](n5cc(NC(=O)c6cnn7ccc(N8C[C@H]9C[C@@H]8CO9)nc67)c(C(F)F)n5)CC4)CC3(F)F)c21` (single isomer, unassigned) [I-331], in data set [1], the DC50 was less than 10 nM. Moreover, the bioavailability in data set [2] is no more than 5%.
Compound `CC(C)(O)c1cc2nn([C@H]3CC[C@H](CN4CCC5(CCN(c6cccc7c(N8CCC(=O)NC8=O)cncc67)CC5)C(F)(F)C4)CC3)cc2cc1NC(=O)c1cncc(C#N)c1` [I-400] showed a DC50 in data set [1] of less than 10 nM. For the same compound, the bioavailability in data set [2] is no more than 5%.

Source of the values: patent publication US20250059164A1, “IRAK DEGRADERS AND USES THEREOF” (Kymera Therapeutics, Inc., priority 2023, published 2025).
